The record followed here is ChEMBL document CHEMBL4052718, “Stereospecific inhibition of nitric oxide production in macrophage cells by flavanonols: Synthesis and the structure-activity relationship. Part 2” (Bioorg Med Chem, 2017).

The subject of data set [1] is RAW264.7. As to the kind of experiment: Inhibition of LPS-stimulated nitric oxide production in […] cells at 100 uM pretreated for 2 hrs followed by LPS-stimulation after 16 hrs by Griess assay relative to control. It is filed as functional. The settings on record: Mus musculus. On the technique in general: Griess reagent forms a coloured azo dye with nitrite.

In data set [2] the test system is RAW264.7. As to the kind of experiment: Inhibition of LPS-stimulated nitric oxide production in […] cells pretreated for 2 hrs followed by LPS-stimulation after 16 hrs by Griess assay. It is filed as functional, cell-based. The settings on record: Mus musculus.
The subject of data set [3] is RAW264.7. As to the kind of experiment: Cytotoxicity against LPS-stimulated […] cells assessed as reduction in cell viability at 100 uM pretreated for 2 hrs followed by LPS-stimulation after 16 hrs by alamar blue assay. To be noted: raw264.7, 16 h. It is filed as cell-based. (In general: Resazurin is reduced to fluorescent resorufin, in cell work by metabolically active cells.)

Data set [4] can be described thus: Cytotoxicity against LPS-stimulated […] cells assessed as cell viability pretreated for 2 hrs followed by LPS-stimulation after 16 hrs by alamar blue assay relative to control. It is filed as cell-based. Details: concentration or dose not given beside the values. To be noted: LPS-stimulated RAW264.7 cells; read-out: Activity.

Some results are limits rather than exact numbers.

As for `COc1cc(OC)c2c(c1)O[C@H](c1cccc(O)c1O)[C@@H](O)C2=O`, the inhibition (commonly the share of the control response that was lost under treatment) at 100 µM in the data set on RAW264.7 [1] was found to be 70%.

In the case of `O=C1c2ccc(O)cc2O[C@H](c2cccc(O)c2O)[C@H]1O`, in the data set on RAW264.7 [2], the 50% inhibitory concentration (IC50) (usually the concentration that inhibits the measured activity by half) came to 70.7 µM. For the same molecule, the inhibition at 100 µM in the data set on RAW264.7 [1] was found to be 70%. Besides, in the data set on RAW264.7 [3], the Activity entry is listed as “Non-Toxic”. Further, the viability at 16 h in data set [4] is no less than 100%.

Take `COc1ccc2c(c1)O[C@@H](c1cccc(O)c1O)[C@H](O)C2=O`: the IC50 in the data set on RAW264.7 [2] was 30.3 µM. The Activity result with RAW264.7 [3] is given as “Non-Toxic”. Besides, the viability at 16 h in data set [4] is no less than 100%.

With `COc1ccc2c(c1)O[C@H](c1cccc(O)c1O)[C@@H](O)C2=O`, in the data set with RAW264.7 [2], the IC50 was found to be 24.6 µM. Besides, the Activity entry with RAW264.7 [3] is listed as “Non-Toxic”. In data set [4], the viability at 16 h is no less than 100%.

Consider `O=C1c2ccc(O)c(O)c2O[C@H](c2cccc(O)c2O)[C@H]1O`, for which the IC50 in the data set on RAW264.7 [2] was 17 µM. Further, the inhibition at 100 µM in the data set with RAW264.7 [1] is 95%. In addition, in the data set on RAW264.7 [3], the Activity result is “Non-Toxic”. Further, in data set [4], the viability at 16 h is no less than 100%.

Take `COc1ccc2c(c1)C(=O)[C@H](O)[C@@H](c1cccc(O)c1O)O2`: the IC50 in the data set with RAW264.7 [2] was greater than 100 µM. Also, in the data set with RAW264.7 [3], the Activity entry is on record as “Non-Toxic”. For the same molecule, the viability at 16 h in data set [4] was no less than 100%.

For the molecule `O=C1c2c(O)cccc2O[C@H](c2cccc(O)c2O)[C@H]1O`, in the data set on RAW264.7 [2], the IC50 came to 77.7 µM. Moreover, in the data set with RAW264.7 [3], the Activity result is reported as “Non-Toxic”. Further, the viability at 16 h in data set [4] is no less than 100%.

Turning to `O=C1c2c(O)cccc2O[C@@H](c2cccc(O)c2O)[C@@H]1O`, in the data set with RAW264.7 [2], the IC50 was greater than 100 µM. Besides, the Activity result in the data set on RAW264.7 [3] is listed as “Non-Toxic”. Moreover, the viability at 16 h in data set [4] was no less than 100%.

Consider `COc1ccc2c(c1O)O[C@H](c1cccc(O)c1O)[C@@H](O)C2=O`, for which the IC50 in the data set with RAW264.7 [2] turned out to be 49.7 µM. Besides, the inhibition at 100 µM with RAW264.7 [1] was found to be 93%. Also, the Activity result in the data set on RAW264.7 [3] is given as “Non-Toxic”. In data set [4], the viability at 16 h is no less than 100%.

In the case of `O=C1c2cc(O)ccc2O[C@@H](c2cccc(O)c2O)[C@@H]1O`, the half-inhibitory concentration (IC50) in the data set on RAW264.7 [2] was greater than 100 µM. The Activity entry in the data set with RAW264.7 [3] is “Non-Toxic”. Also, the viability at 16 h in data set [4] is no less than 100%.

For `COc1cc2c(cc1OC)C(=O)[C@H](O)[C@@H](c1cccc(O)c1O)O2`, the IC50 with RAW264.7 [2] amounted to 50.3 µM. For the same molecule, the inhibition at 100 µM in the data set on RAW264.7 [1] was found to be 93%. For the same molecule, the Activity result in the data set on RAW264.7 [3] is listed as “Non-Toxic”. Besides, the viability at 16 h in data set [4] was no less than 100%.

Consider `COc1ccc2c(c1)C(=O)[C@@H](O)[C@H](c1cccc(O)c1O)O2`, for which the half-maximal inhibitory concentration (IC50) with RAW264.7 [2] was greater than 100 µM. The Activity entry with RAW264.7 [3] is “Non-Toxic”. In addition, the viability at 16 h in data set [4] is no less than 100%.

For `COc1ccc2c(c1O)O[C@@H](c1cccc(O)c1O)[C@H](O)C2=O`, the IC50 in the data set with RAW264.7 [2] turned out to be 88.5 µM. Also, in the data set on RAW264.7 [3], the Activity result was “Non-Toxic”. In data set [4], the viability at 16 h was no less than 100%.

`O=C1c2ccc(O)cc2O[C@@H](c2cccc(O)c2O)[C@@H]1O`: the IC50 with RAW264.7 [2] was greater than 100 µM. The Activity entry in the data set with RAW264.7 [3] was “Non-Toxic”. Also, the viability at 16 h in data set [4] was no less than 100%.

For the molecule `O=C1c2ccccc2O[C@H](c2cccc(O)c2O)[C@H]1O`, the IC50 in the data set on RAW264.7 [2] was greater than 100 µM. Further, in the data set on RAW264.7 [3], the Activity entry is “Non-Toxic”. Also, the viability at 16 h in data set [4] is no less than 100%.

For `O=C1c2ccccc2O[C@@H](c2cccc(O)c2O)[C@@H]1O`, in the data set on RAW264.7 [2], the IC50 is greater than 100 µM. In addition, the Activity entry in the data set on RAW264.7 [3] is reported as “Non-Toxic”. For the same molecule, the viability at 16 h in data set [4] is no less than 100%.

On to `O=C1c2cc(O)ccc2O[C@H](c2cccc(O)c2O)[C@H]1O`, for which, in the data set with RAW264.7 [2], the IC50 is greater than 100 µM. For the same molecule, in the data set with RAW264.7 [3], the Activity result is given as “Non-Toxic”. Moreover, the viability at 16 h in data set [4] is no less than 100%.

`COc1cc2c(cc1OC)C(=O)[C@@H](O)[C@H](c1cccc(O)c1O)O2`: the IC50 in the data set with RAW264.7 [2] was greater than 100 µM. In addition, the Activity entry in the data set on RAW264.7 [3] is “Non-Toxic”. For the same molecule, the viability at 16 h in data set [4] was no less than 100%.

As for `O=C1c2ccc(O)c(O)c2O[C@@H](c2cccc(O)c2O)[C@@H]1O`, the half-inhibitory concentration (IC50) with RAW264.7 [2] is greater than 100 µM. In addition, the inhibition at 100 µM in the data set with RAW264.7 [1] was 0%. The Activity entry with RAW264.7 [3] is reported as “Non-Toxic”. Also, the viability at 16 h in data set [4] was no less than 100%.

With `Cc1ccc2c(c1)OC(c1cccc(O)c1O)C(O)C2=O` (racemic), in the data set with RAW264.7 [2], the IC50 worked out at 31.8 µM. Moreover, the Activity result in the data set on RAW264.7 [3] is on record as “Non-Toxic”. The viability at 16 h in data set [4] was no less than 100%.

Turning to `COc1cc(OC)c2c(c1)OC(c1cccc(O)c1O)C(O)C2=O` (racemic), the 50% inhibitory concentration (IC50) in the data set with RAW264.7 [2] came to 57.6 µM. For the same molecule, the inhibition at 100 µM in the data set on RAW264.7 [1] stood at 58%. The Activity entry in the data set with RAW264.7 [3] is “Non-Toxic”. Further, the viability at 16 h in data set [4] is no less than 100%.

Regarding `Cc1ccc2c(c1)C(=O)C(O)C(c1cccc(O)c1O)O2` (racemic), the IC50 with RAW264.7 [2] is 45.3 µM. For the same molecule, the Activity result in the data set with RAW264.7 [3] is listed as “Non-Toxic”. Further, the viability at 16 h in data set [4] is no less than 100%.

On to `Cc1cc2c(cc1C)C(=O)C(O)C(c1cccc(O)c1O)O2` (racemic), for which, in the data set on RAW264.7 [2], the half-inhibitory concentration (IC50) is 20.7 µM. In addition, in the data set with RAW264.7 [3], the Activity result is on record as “Non-Toxic”. Moreover, in data set [4], the viability at 16 h was no less than 100%.
